Results published in patent US12428406B2 (PMV Pharmaceuticals, Inc., priority 2019, dated 2025).

Molecular target: T1, p53 Y220C (Homo sapiens, UniProt P04637, Y220C)
T1 construct: The recombinant protein was a truncation mutant containing only amino acids 94-312 of p53; made in house; host or cells: E. coli
Assay: In vitro DNA binding activity assay (HTRF / TR-FRET): stabilization of p53 Y220C and increase of its DNA binding activity
Type: biochemical
Details: recombinant His-tagged p53 Y220C DNA binding domain (aa 94-312), biotin-labeled consensus DNA, incubated at 27° C. or 29° C. for 60 min
Procedure, shortened: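 Test compounds, diluted 3-fold in DMSO from 4.5 mM stocks, were incubated with bacterially expressed His-tagged p53 Y220C at room temperature for 15 min, and after a further step for 20 min. DNA binding was detected by time-resolved FRET between APC and europium labels. SC150 marks the concentration increasing binding by 50%.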

T1 sequence (P04637 94-312, change not shown): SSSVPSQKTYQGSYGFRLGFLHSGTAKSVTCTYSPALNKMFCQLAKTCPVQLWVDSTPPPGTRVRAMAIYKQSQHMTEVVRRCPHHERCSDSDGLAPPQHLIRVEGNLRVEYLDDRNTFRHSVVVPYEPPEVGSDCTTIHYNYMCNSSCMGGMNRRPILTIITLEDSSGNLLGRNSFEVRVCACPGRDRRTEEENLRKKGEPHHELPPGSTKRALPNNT

SC150 (concentration of the compound required to increase the DNA binding activity by 50%), + (+ = 0 μM ≤ SC150 < 0.05 μM):
COc1cc(S(N)(=O)=O)ccc1NCC#Cc1cc2c(NC3CCN(C(C)C)CC3)cccc2n1CC(F)(F)F [Compound 543A, 3-methoxy-4-{[3-(4-{[1-(propan-2-yl)piperidin-4-yl]amino}-1-(2,2,2-trifluoroethyl)-1H-indol-2-yl)prop-2-yn-1-yl]amino}benzene-1-sulfonamide]
COc1cc(S(C)(=O)=O)ccc1NCC#Cc1cc2c(NC3CCN(CCOCCOCCO)CC3)cccc2n1CC(F)(F)F [Compound 544A, 2-[2-(2-{4-[(2-{3-[(4-methanesulfonyl-2-methoxyphenyl)amino]prop-1-yn-1-yl}-1-(2,2,2-trifluoroethyl)-1H-indol-4-yl)amino]piperidin-1-yl}ethoxy)ethoxy]ethan-1-ol]
COc1cc(S(C)(=O)=O)ccc1NCC#Cc1cc2c(NC3CCN(CC4COC(=O)O4)CC3)cccc2n1CC(F)(F)F (centres unmarked) [Compound 545A, 4-({4-[(2-{3-[(4-methanesulfonyl-2-methoxyphenyl)amino]prop-1-yn-1-yl}-1-(2,2,2-trifluoroethyl)-1H-indol-4-yl)amino]piperidin-1-yl}methyl)-1,3-dioxolan-2-one]
COc1cc(S(N)(=O)=O)ccc1NCC#Cc1cc2c(NC3CCN(CC4COC(=O)O4)CC3)cccc2n1CC(F)(F)F (centres unmarked) [Compound 546A, 3-methoxy-4-({3-[4-({1-[(2-oxo-1,3-dioxolan-4-yl)methyl]piperidin-4-yl}amino)-1-(2,2,2-trifluoroethyl)-1H-indol-2-yl]prop-2-yn-1-yl}amino)benzene-1-sulfonamide]
COc1cc(S(=O)(=O)Nc2ccon2)ccc1NCC#Cc1cc2c(NC3CCN(CC(O)CO)CC3)cccc2n1CC(F)(F)F (centres unmarked) [Compound 547A, 4-{[3-(4-{[1-(2,3-dihydroxypropyl)piperidin-4-yl]amino}-1-(2,2,2-trifluoroethyl)-1H-indol-2-yl)prop-2-yn-1-yl]amino}-3-methoxy-N-(1,2-oxazol-3-yl)benzene-1-sulfonamide]
COc1cc(S(N)(=O)=O)ccc1NCC#Cc1cc2c(NC3CCN(C[C@H](O)CO)CC3)cccc2n1CC(F)(F)F [Compound 549A, (rac)-4-({3-[4-({1-[2,3-dihydroxypropyl]piperidin-4-yl}amino)-1-(2,2,2-trifluoroethyl)-1H-indol-2-yl]prop-2-yn-1-yl}amino)-3-methoxybenzene-1-sulfonamide]
COc1cc(S(N)(=O)=O)ccc1NCC#Cc1cc2c(NC3CCN(C[C@@H](O)CO)CC3)cccc2n1CC(F)(F)F [Compound 550A, (rac)-4-({3-[4-({1-[2,3-dihydroxypropyl]piperidin-4-yl}amino)-1-(2,2,2-trifluoroethyl)-1H-indol-2-yl]prop-2-yn-1-yl}amino)-3-methoxybenzene-1-sulfonamide]
COc1cc(S(=O)(=O)NC2CCOCC2)ccc1NCC#Cc1cc2c(NC3CCN(CC(O)CO)CC3)cccc2n1CC(F)(F)F (centres unmarked) [Compound 552A, 4-{[3-(4-{[1-(2,3-dihydroxypropyl)piperidin-4-yl]amino}-1-(2,2,2-trifluoroethyl)-1H-indol-2-yl)prop-2-yn-1-yl]amino}-3-methoxy-N-(oxan-4-yl) benzene-1-sulfonamide]
COc1cc(S(=O)(=O)N(C)CCO)ccc1NCC#Cc1cc2c(NC3CCN(CC(O)CO)CC3)cccc2n1CC(F)(F)F (centres unmarked) [Compound 553A, 4-{[3-(4-{[1-(2,3-dihydroxypropyl)piperidin-4-yl]amino}-1-(2,2,2-trifluoroethyl)-1H-indol-2-yl)prop-2-yn-1-yl]amino}-N-(2-hydroxyethyl)-3-methoxy-N-methylbenzene-1-sulfonamide]
COc1cc(C(C)(C)C#N)ncc1NCC#Cc1cc2c(NC3CCN(CC(O)CO)CC3)cccc2n1CC(F)(F)F (centres unmarked) [Compound 554A, 2-(5-{[3-(4-{[1-(2,3-dihydroxypropyl)piperidin-4-yl]amino}-1-(2,2,2-trifluoroethyl)-1H-indol-2-yl)prop-2-yn-1-yl]amino}-4-methoxypyridin-2-yl)-2-methylpropanenitrile]
COc1cc(S(=O)(=O)N(C)CCO)ccc1NCC#Cc1cc2c(NC3CCN(C4CCOCC4)CC3)cccc2n1CC(F)(F)F [Compound 555A, N-(2-hydroxyethyl)-3-methoxy-N-methyl-4-{[3-(4-{[1-(oxan-4-yl)piperidin-4-yl]amino}-1-(2,2,2-trifluoroethyl)-1H-indol-2-yl)prop-2-yn-1-yl]amino}benzene-1-sulfonamide]
COc1cc(S(C)(=O)=O)ccc1NCC#Cc1cc2c(NC3CCN(C[C@@H](O)CO)CC3)cccc2n1CC(F)(F)F [Compound 557A, (2R)-3-{4-[(2-{3-[(4-methanesulfonyl-2-methoxyphenyl)amino]prop-1-yn-1-yl}-1-(2,2,2-trifluoroethyl)-1H-indol-4-yl)amino]piperidin-1-yl}propane-1,2-diol]
COc1cc(S(C)(=O)=O)ccc1NCC#Cc1cc2c(NC3CCN(C[C@H](O)CO)CC3)cccc2n1CC(F)(F)F [Compound 558A, (2S)-3-{4-[(2-{3-[(4-methanesulfonyl-2-methoxyphenyl)amino]prop-1-yn-1-yl}-1-(2,2,2-trifluoroethyl)-1H-indol-4-yl)amino]piperidin-1-yl}propane-1,2-diol]
COc1cc(S(=O)(=O)N2CCN(C)CC2)ccc1NCC#Cc1cc2c(NC3CCN(CC(O)CO)CC3)cccc2n1CC(F)(F)F (centres unmarked) [Compound 559A, 3-[4-({2-[3-({2-methoxy-4-[(4-methylpiperazin-1-yl)sulfonyl]phenyl}amino)prop-1-yn-1-yl]-1-(2,2,2-trifluoroethyl)-1H-indol-4-yl}amino)piperidin-1-yl]propane-1,2-diol]
COc1cc(S(N)(=O)=O)ccc1NCC#Cc1cc2c(NC3CCN(C[C@@H]4COC(=O)O4)CC3)cccc2n1CC(F)(F)F [Compound 562A, 3-methoxy-4-[(3-{4-[(1-{[(4R)-2-oxo-1,3-dioxolan-4-yl]methyl}piperidin-4-yl)amino]-1-(2,2,2-trifluoroethyl)-1H-indol-2-yl}prop-2-yn-1-yl)amino]benzene-1-sulfonamide]
COc1cc(S(C)(=O)=O)ccc1NCC#Cc1cc2c(NC3CCN(C[C@@H]4COC(=O)O4)CC3)cccc2n1CC(F)(F)F [Compound 563A, (4R)-4-({4-[(2-{3-[(4-methanesulfonyl-2-methoxyphenyl)amino]prop-1-yn-1-yl}-1-(2,2,2-trifluoroethyl)-1H-indol-4-yl)amino]piperidin-1-yl}methyl)-1,3-dioxolan-2-one]
COc1cc(S(=O)(=O)N(C)C)ccc1NCC#Cc1cc2c(NC3CCN(CC(O)CO)CC3)cccc2n1CC(F)(F)F (centres unmarked) [Compound 564A, 4-{[3-(4-{[1-(2,3-dihydroxypropyl)piperidin-4-yl]amino}-1-(2,2,2-trifluoroethyl)-1H-indol-2-yl)prop-2-yn-1-yl]amino}-3-methoxy-N,N-dimethylbenzene-1-sulfonamide]
COc1cc(S(C)(=O)=O)ccc1NCC#Cc1cc2c(NC3CCN(CCOC(C)=O)CC3)cccc2n1CC(F)(F)F [Compound 565A, 2-{4-[(2-{3-[(4-methanesulfonyl-2-methoxyphenyl)amino]prop-1-yn-1-yl}-1-(2,2,2-trifluoroethyl)-1H-indol-4-yl)amino]piperidin-1-yl}EtOAc]
COc1cc(S(C)(=O)=O)ccc1NCC#Cc1cc2c(NC3CCN(C[C@@H]4COC(C)(C)O4)CC3)cccc2n1CC(F)(F)F [Compound 566A, N-(1-{[(4R)-2,2-dimethyl-1,3-dioxolan-4-yl]methyl}piperidin-4-yl)-2-{3-[(4-methanesulfonyl-2-methoxyphenyl)amino]prop-1-yn-1-yl}-1-(2,2,2-trifluoroethyl)-1H-indol-4-amine]
COc1cc(S(C)(=O)=O)ccc1NCC#Cc1cc2c(NC3CCN(CC(C)OC(C)=O)CC3)cccc2n1CC(F)(F)F (centres unmarked) [Compound 567A, 1-{4-[(2-{3-[(4-methanesulfonyl-2-methoxyphenyl)amino]prop-1-yn-1-yl}-1-(2,2,2-trifluoroethyl)-1H-indol-4-yl)amino]piperidin-1-yl}propan-2-yl acetate]
